Source: patent US9073876B2, “Flap modulators” (JANSSEN PHARMACEUTICA NV, priority 2013, dated 2015)
Where a name gives a salt, the structure may show the parent alone.

Experiments:
[1] = target: human FLAP (Homo sapiens (Human), UniProt P20292); assay: FLAP binding assay (HTRF); conditions: human FLAP-containing membranes, HTRF format; average of two assay plates, duplicates; read-out: FLAP Binding wild type HTRF Ki
In short: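 Read-out is the HTRF ratio. Each reported figure averages two assay plates on which samples were tested in duplicate.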

[2] = tested on: leukotriene pathway in human whole blood (LTB4 levels); assay: Human whole blood assay (LTB4); type: cell-based; conditions: human whole blood diluted 1:1 in RPMI, stimulated with calcium ionophore A23187; single replicate
In short: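 Heparinised human whole blood diluted 1:1 in RPMI, pre-incubated 15 min at 37° Celsius with compound, then stimulated with A23187 (7 μg/mL) for 30 min at 37° Celsius. Plasma LTB4 measured by immunoassay kit; IC50 from 4-parameter fit; single replicate per plate, at least one healthy donor.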

Sequence of human FLAP (P20292 whole entry): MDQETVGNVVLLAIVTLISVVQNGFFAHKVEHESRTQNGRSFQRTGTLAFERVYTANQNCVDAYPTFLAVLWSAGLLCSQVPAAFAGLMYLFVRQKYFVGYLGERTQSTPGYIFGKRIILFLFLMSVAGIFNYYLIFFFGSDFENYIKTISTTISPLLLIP

Structure (SMILES) | Ki [1] | IC50 [2]
CC(C)(C)OC(=O)N1CCCC1COc1c(C2CCC2)ccc(-c2cnc(N)cn2)c1F (stereo not drawn) [Example 248, tert-butyl 2-((3-(5-aminopyrazin-2-yl)-6-cyclobutyl-2-fluorophenoxy)methyl)pyrrolidine-1-carboxylate] | 261 nM | 10000 nM
CC(C)(C)OC(=O)N1CCCC(COc2c(C3CCC3)ccc(-c3cnc(N)cn3)c2F)C1 (stereo not drawn) [Example 249, tert-Butyl 3-((3-(5-aminopyrazin-2-yl)-6-cyclobutyl-2-fluorophenoxy)methyl)piperidine-1-carboxylate] | 208 nM | 1260 nM
Nc1cnc(-c2ccc(C3CCC3)c(OCCO)c2F)cn1 [Example 250, 2-(3-(5-Aminopyrazin-2-yl)-6-cyclobutyl-2-fluorophenoxy)ethanol] | 99.2 nM | 357 nM
CC(C)CNc1nccc(Oc2c(C3CCC3)ccc(-c3cnc(N)cn3)c2F)n1 [Example 261, 4-(3-(5-Aminopyrazin-2-yl)-6-cyclobutyl-2-fluorophenoxy)-N-isobutylpyrimidin-2-amine trifluoroacetic acid salt] | 1.3 nM | 40.1 nM
COC(=O)c1ccc(O)c(NC(=O)COc2c(C3CCC3)ccc(-c3cnc(N)cn3)c2F)c1 [Example 263, Methyl 3-({[3-(5-aminopyrazin-2-yl)-6-cyclobutyl-2-fluorophenoxy]acetyl}amino)-4-hydroxybenzoate] | 138 nM | 1960 nM
Nc1cnc(-c2ccc(C3CC3)c(Oc3ncccn3)c2F)cn1 [Example 278, 5-[4-Cyclopropyl-2-fluoro-3-(pyrimidin-2-yloxy)phenyl]pyrazin-2-amine] | 100 nM | 216 nM
Nc1cnc(-c2ccc(C3CC3)c(Oc3nccc(N)n3)c2F)cn1 [Example 279, 2-[3-(5-Aminopyrazin-2-yl)-6-cyclopropyl-2-fluorophenoxy]pyrimidin-4-amine] | 67.5 nM | 147 nM
COC(=O)c1coc(COc2c(C3CCC3)ccc(-c3cnc(N)cn3)c2F)n1 [Example 281, Methyl 2-{[3-(5-aminopyrazin-2-yl)-6-cyclobutyl-2-fluorophenoxy]methyl}-1,3-oxazole-4-carboxylate trifluoroacetic acid salt] | 101 nM | 370 nM
Nc1cnc(-c2ccc(C3CCC3)c(OCc3ccc(Cl)cn3)c2F)cn1 [Example 289, 5-{3-[(5-Chloropyridin-2-yl)methoxy]-4-cyclobutyl-2-fluorophenyl}pyrazin-2-amine trifluoroacetic acid salt] | 229 nM | 782 nM
N#Cc1ccc(COc2c(C3CCC3)ccc(-c3cnc(N)cn3)c2F)cn1 [Example 290, 5-{[3-(5-Aminopyrazin-2-yl)-6-cyclobutyl-2-fluorophenoxy]methyl}pyridine-2-carbonitrile trifluoroacetic acid salt] | 39.9 nM | 506 nM
Cc1cc(COc2c(C3CCC3)ccc(-c3cnc(N)cn3)c2F)no1 [Example 291, 5-{4-Cyclobutyl-2-fluoro-3-[(5-methylisoxazol-3-yl)methoxy]phenyl}pyrazin-2-amine trifluoroacetic acid salt] | 46.6 nM | 576 nM
N#Cc1cccc(COc2c(C3CCC3)ccc(-c3cnc(N)cn3)c2F)n1 [Example 292, 6-{[3-(5-Aminopyrazin-2-yl)-6-cyclobutyl-2-fluorophenoxy]methyl}pyridine-2-carbonitrile trifluoroacetic acid salt] | 37.2 nM | 412 nM
Nc1cnc(-c2ccc(C3CCC3)c(OCCNc3ncccn3)c2F)cn1 [Example 296, N-{2-[3-(5-Aminopyrazin-2-yl)-6-cyclobutyl-2-fluorophenoxy]ethyl}pyrimidin-2-amine trifluoroacetic acid salt] | 6.8 nM | 350 nM
CCc1ccc(-c2cnc(N)cn2)c(F)c1Oc1nccc(N)n1 [Example 317, 2-[3-(5-Aminopyrazin-2-yl)-6-ethyl-2-fluorophenoxy]pyrimidin-4-amine] | 198 nM | 464 nM
CC(C)c1ccc(-c2cnc(N)cn2)c(F)c1Oc1ncccn1 [Example 318, 5-[2-Fluoro-4-(1-methylethyl)-3-(pyrimidin-2-yloxy)phenyl]pyrazin-2-amine] | 58.1 nM | 103 nM
CCCc1ccc(-c2cnc(N)cn2)c(F)c1Oc1ncccn1 [Example 319, 5-[2-Fluoro-4-propyl-3-(pyrimidin-2-yloxy)phenyl]pyrazin-2-amine] | 337 nM | 284 nM
Nc1cnc(-c2ccc(CC3CCCCC3)c(Oc3ncccn3)c2F)cn1 [Example 321, 5-(4-(Cyclohexylmethyl)-2-fluoro-3-(pyrimidin-2-yloxy)phenyl)pyrazin-2-amine] | 116 nM | > 10000 nM
CC(C)Cc1ccc(-c2cnc(N)cn2)c(F)c1Oc1ncccn1 [Example 323, 5-(2-Fluoro-4-isobutyl-3-(pyrimidin-2-yloxy)phenyl)pyrazin-2-amine] | 211 nM | 141 nM
CC(C)(C)Cc1ccc(-c2cnc(N)cn2)c(F)c1Oc1ncccn1 [Example 324, 5-(2-Fluoro-4-neopentyl-3-(pyrimidin-2-yloxy)phenyl)pyrazin-2-amine] | 73.8 nM | 260 nM
CC(C)Cc1ccc(-c2cnc(N)cn2)c(F)c1Oc1nccc(N)n1 [Example 328, 2-(3-(5-Aminopyrazin-2-yl)-2-fluoro-6-isobutylphenoxy)pyrimidin-4-amine] | 113 nM | 312 nM

Further lines, results first:

Ki [1] | IC50 [2] | Structure (SMILES)
29.6 nM | > 1000 nM | Nc1cnc(-c2ccc(C3CCC3)c(OCC3CCCO3)c2F)cn1 (stereo not drawn) [Example 252, 5-(4-Cyclobutyl-2-fluoro-3-((tetrahydrofuran-2-yl)methoxy)phenyl)pyrazin-2-amine]
31.1 nM | 332 nM | Nc1cnc(-c2ccc(C3CCC3)c(Oc3ccnnc3)c2F)cn1 [Example 257, 5-(4-Cyclobutyl-2-fluoro-3-(pyridazin-4-yloxy)phenyl)pyrazin-2-amine]
3.8 nM | 10.1 nM | Nc1cnc(-c2ccc(C3CCC3)c(Oc3nccnc3N)c2F)cn1 [Example 258, 3-(3-(5-Aminopyrazin-2-yl)-6-cyclobutyl-2-fluorophenoxy)pyrazin-2-amine]
7 nM | 134 nM | Nc1cnc(-c2ccc(C3CCC3)c(Oc3cnccn3)c2F)cn1 [Example 259, 5-(4-Cyclobutyl-2-fluoro-3-(pyrazin-2-yloxy)phenyl)pyrazin-2-amine]
19.9 nM | 197 nM | Nc1cnc(-c2ccc(C3CCC3)c(Oc3ccncn3)c2F)cn1 [Example 260, 5-(4-Cyclobutyl-2-fluoro-3-(pyrimidin-4-yloxy)phenyl)pyrazin-2-amine]
19.6 nM | 160 nM | COC(=O)c1ccc2oc(COc3c(C4CCC4)ccc(-c4cnc(N)cn4)c3F)nc2c1 [Example 262, Methyl 2-{[3-(5-aminopyrazin-2-yl)-6-cyclobutyl-2-fluorophenoxy]methyl}-1,3-benzoxazole-5-carboxylate]
0.9 nM | 15.1 nM | CNc1nc(C)cc(Oc2c(C3CCC3)ccc(-c3cnc(N)cn3)c2F)n1 [Example 269, 4-[3-(5-Aminopyrazin-2-yl)-6-cyclobutyl-2-fluorophenoxy]-N,6-dimethylpyrimidin-2-amine]
0.5 nM | 41.9 nM | Nc1cnc(-c2ccc(C3CCC3)c(Oc3nc(N)c4ccccc4n3)c2F)cn1 [Example 272, 2-[3-(5-Aminopyrazin-2-yl)-6-cyclobutyl-2-fluorophenoxy]quinazolin-4-amine]
39.2 nM | 406 nM | N#CCOc1c(C2CCC2)ccc(-c2cnc(N)cn2)c1F [Example 276, [3-(5-Aminopyrazin-2-yl)-6-cyclobutyl-2-fluorophenoxy]acetonitrile]
17.7 nM | 135 nM | Nc1cnc(-c2ccc(C3CCC3)c(Oc3cccnn3)c2F)cn1 [Example 277, 5-[4-Cyclobutyl-2-fluoro-3-(pyridazin-3-yloxy)phenyl]pyrazin-2-amine]
29.4 nM | > 10000 nM | Nc1cnc(-c2ccc(C3CCC3)c(OCc3nc(C(=O)O)co3)c2F)cn1 [Example 282, 2-{[3-(5-Aminopyrazin-2-yl)-6-cyclobutyl-2-fluorophenoxy]methyl}-1,3-oxazole-4-carboxylic acid trifluoroacetic acid salt]
16.5 nM | 1000 nM | Nc1cnc(-c2ccc(C3CCC3)c(OCCN3C(=O)c4ccccc4C3=O)c2F)cn1 [Example 293, 2-{2-[3-(5-aminopyrazin-2-yl)-6-cyclobutyl-2-fluorophenoxy]ethyl}-1H-isoindole-1,3(2H)-dione]
4.2 nM | 149 nM | Nc1cnc(-c2ccc(C3CCC3)c(OCCNc3cnccn3)c2F)cn1 [Example 295, 5-{4-Cyclobutyl-2-fluoro-3-[2-(pyrazin-2-ylamino)ethoxy]phenyl}pyrazin-2-amine trifluoroacetic acid salt]
14.4 nM | 263 nM | Nc1cnc(-c2ccc(C3CCC3)c(OCCNc3ccncn3)c2F)cn1 [Example 297, N-{2-[3-(5-Aminopyrazin-2-yl)-6-cyclobutyl-2-fluorophenoxy]ethyl}pyrimidin-4-amine]
2.4 nM | 27 nM | Nc1cnc(-c2ccc(C3CCC3)c(Oc3ncc(-c4cnc(N)nc4)cn3)c2F)cn1 [Example 313, 2′-[3-(5-Aminopyrazin-2-yl)-6-cyclobutyl-2-fluorophenoxy]-5,5′-bipyrimidin-2-amine]
9.5 nM | 52.7 nM | Nc1cnc(-c2ccc(C3CCCCC3)c(Oc3nccc(N)n3)c2F)cn1 [Example 325, 2-(3-(5-Aminopyrazin-2-yl)-6-cyclohexyl-2-fluorophenoxy)pyrimidin-4-amine]
